# Experimental data published in patent US8952024B2, “Herbicidal pyrimidone derivatives” (E I du Pont de Nemours and Company, priority 2009, dated 2015).
# Assays:
# Format in all cases: in vivo
# [1] = tested on: ducksalad (Heteranthera limosa); assay: Test B flooded paddy test; conditions: for Plant response rating, Flood, Ducksalad: 250 g ai/ha, flooded paddy test, visual rating on 0 to 100 scale (0 no effect, 100 complete control) after 13 to 15 days; for Plant response rating, Ducksalad: Flood (flooded paddy test), 13 to 15 days; for Ducksalad plant response rating: Flood, 31 g ai/ha, scale 0 to 100 (0 no effect, 100 complete control)
# Summary of the method: (§1)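 Each compound is added to standing floodwater (3 cm above soil, maintained) in pots of 2-leaf-stage plants; greenhouse exposure lasts 13–15 d before visual comparison with controls on a 0–100 control scale.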
# rice (Oryza sativa) = assay: Test B flooded paddy test; conditions: for Plant response rating, Flood, Rice: 250 g ai/ha, flooded paddy test, visual rating on 0 to 100 scale (0 no effect, 100 complete control) after 13 to 15 days; for Plant response rating, Rice: Flood (flooded paddy test), 13 to 15 days; for Rice plant response rating: Flood, 31 g ai/ha, scale 0 to 100 (0 no effect, 100 complete control)
# Summary of the method: as §1
# [2] = tested on: barnyardgrass (Echinochloa crus-galli); assay: Test B flooded paddy test; conditions: for Plant response rating, Flood, Barnyardgrass: 250 g ai/ha, flooded paddy test, visual rating on 0 to 100 scale (0 no effect, 100 complete control) after 13 to 15 days; for Plant response rating, Barnyardgrass: Flood (flooded paddy test), 13 to 15 days; for Barnyardgrass plant response rating: Flood, 31 g ai/ha, scale 0 to 100 (0 no effect, 100 complete control)
# Summary of the method: as §1
# [3] = tested on: umbrella sedge (Cyperus difformis); assay: Test B flooded paddy test; conditions: for Plant response rating, Flood, Sedge, Umbrella: 250 g ai/ha, flooded paddy test, visual rating on 0 to 100 scale (0 no effect, 100 complete control) after 13 to 15 days; for Plant response rating, Sedge, Umbrella: Flood (flooded paddy test), 13 to 15 days; for Sedge, Umbrella plant response rating: Flood, 31 g ai/ha, scale 0 to 100 (0 no effect, 100 complete control)
# Summary of the method: as §1
# corn (Zea mays) = assay: Test A pre-/postemergence plant response
# Summary of the method: (§2)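 Injury was scored visually after roughly ten days against untreated controls, 0 = no effect, 100 = complete control. Test chemicals in a surfactant-containing non-phytotoxic solvent were sprayed either onto soil preemergence or onto one- to two-leaf, 2–10 cm plants postemergence.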
# [4] = tested on: wheat (Triticum aestivum); assay: Test A pre-/postemergence plant response
# Summary of the method: as §2
# [5] = tested on: large crabgrass (Digitaria sanguinalis); assay: Test A pre-/postemergence plant response
# Summary of the method: as §2
# [6] = tested on: velvetleaf (Abutilon theophrasti); assay: Test A pre-/postemergence plant response
# Summary of the method: as §2
# [7] = tested on: morningglory (Ipomoea spp.); assay: Test A pre-/postemergence plant response
# Summary of the method: as §2
# [8] = tested on: giant foxtail (Setaria faberii); assay: Test A pre-/postemergence plant response
# Summary of the method: as §2
# [9] = tested on: pigweed (Amaranthus retroflexus); assay: Test A pre-/postemergence plant response
# Summary of the method: as §2
# [10] = tested on: barnyardgrass (Echinochloa crus-galli); assay: Test A pre-/postemergence plant response
# Summary of the method: as §2
# [11] = 62 g ai/ha, scale of 0 to 100 where 0 is no effect and 100 is complete control
# [12] = 125 g ai/ha, scale 0 to 100, 0 is no effect, 100 is complete control
# [13] = Postemergence, 125 g ai/ha, 0 to 100 scale where 0 is no effect and 100 is complete control
# [14] = Postemergence, 500 g ai/ha, 0 to 100 scale, 0 = no effect, 100 = complete control, approx. ten days
# [15] = Preemergence, 125 g ai/ha, 0 to 100 scale, 0 = no effect, 100 = complete control
# [16] = Preemergence, 500 g ai/ha, visual injury, 0 to 100 scale (0 no effect, 100 complete control), approx. ten days
# [17] = Postemergence, 500 g ai/ha, visual injury, 0 to 100 scale (0 no effect, 100 complete control), approx. ten days
# [18] = Preemergence, 500 g ai/ha, 0 to 100 scale, 0 = no effect, 100 = complete control
smiles,measurement,setting,value
CCCCn1c(-c2cccc(F)c2)ncc(C(=O)C2=C(O)CCCC2=O)c1=O [Compound 125],"Plant response rating, Flood, Ducksalad",[1],70
same,"Plant response rating, Ducksalad",[1]; [11],40
same,"Plant response rating, Ducksalad",[1]; [12],60
same,Ducksalad plant response rating,[1],20
same,"Plant response rating, Flood, Rice",rice (Oryza sativa),0
same,"Plant response rating, Rice",rice (Oryza sativa); [11],0
same,"Plant response rating, Rice",rice (Oryza sativa); [12],0
same,Rice plant response rating,rice (Oryza sativa),0
same,"Plant response rating, Flood, Barnyardgrass",[2],60
same,"Plant response rating, Barnyardgrass",[2]; [11],25
same,"Plant response rating, Barnyardgrass",[2]; [12],40
same,Barnyardgrass plant response rating,[2],0
same,"Plant response rating, Flood, Sedge, Umbrella",[3],90
same,"Plant response rating, Sedge, Umbrella",[3]; [11],35
same,"Plant response rating, Sedge, Umbrella",[3]; [12],90
same,"Sedge, Umbrella plant response rating",[3],25
same,"Plant response rating, Corn",corn (Zea mays); [13],0
same,"Plant response rating, Corn",corn (Zea mays); [14],20
same,"Plant response rating, Corn",corn (Zea mays); [15],0
same,"Plant response rating, Corn",corn (Zea mays); [16],0
same,"Plant response rating, Wheat",[4]; [13],0
same,"Plant response rating, Wheat",[4]; [14],10
same,"Plant response rating, Wheat",[4]; [15],0
same,"Plant response rating, Wheat",[4]; [16],0
same,"Plant response rating, Crabgrass, Large",[5]; [13],70
same,"Plant response rating, Crabgrass, Large",[5]; [14],90
same,"Plant response rating, Crabgrass, Large",[5]; [15],80
same,"Plant response rating, Crabgrass, Large",[5]; [16],100
same,"Plant response rating, Velvetleaf",[6]; [13],100
same,"Plant response rating, Velvetleaf",[6]; [14],100
same,"Plant response rating, Velvetleaf",[6]; [15],60
same,"Plant response rating, Velvetleaf",[6]; [16],100
same,"Plant response rating, Morningglory",[7]; [13],80
same,"Plant response rating, Morningglory",[7]; [14],80
same,"Plant response rating, Morningglory",[7]; [15],0
same,"Plant response rating, Morningglory",[7]; [16],0
same,"Plant response rating, Foxtail, Giant",[8]; [13],70
same,"Plant response rating, Foxtail, Giant",[8]; [14],90
same,"Plant response rating, Foxtail, Giant",[8]; [15],40
same,"Plant response rating, Foxtail, Giant",[8]; [16],80
same,"Plant response rating, Pigweed",[9]; [13],90
same,"Plant response rating, Pigweed",[9]; [14],100
same,"Plant response rating, Pigweed",[9]; [15],90
same,"Plant response rating, Pigweed",[9]; [16],90
same,"Plant response rating, Barnyardgrass",[10]; [13],70
same,"Plant response rating, Barnyardgrass",[10]; [14],90
same,"Plant response rating, Barnyardgrass",[10]; [15],10
same,"Plant response rating, Barnyardgrass",[10]; [16],90
CCc1ccc(-n2c(-c3cccc(Cl)c3)ncc(C(=O)C3=C(O)CCCC3=O)c2=O)cc1 [Compound 174],"Plant response rating, Ducksalad",[1]; [12],95
same,Ducksalad plant response rating,[1],80
same,"Plant response rating, Rice",rice (Oryza sativa); [12],0
same,Rice plant response rating,rice (Oryza sativa),0
same,"Plant response rating, Barnyardgrass",[2]; [12],0
same,Barnyardgrass plant response rating,[2],0
same,"Plant response rating, Sedge, Umbrella",[3]; [12],95
same,"Sedge, Umbrella plant response rating",[3],85
same,"Plant response rating, Corn",corn (Zea mays); [13],10
same,Corn plant response rating,corn (Zea mays); [17],20
same,"Plant response rating, Corn",corn (Zea mays); [15],10
same,"Plant response rating, Corn",corn (Zea mays); [18],20
same,"Plant response rating, Wheat",[4]; [13],0
same,Wheat plant response rating,[4]; [17],0
same,"Plant response rating, Wheat",[4]; [15],0
same,"Plant response rating, Wheat",[4]; [18],0
same,"Plant response rating, Crabgrass, Large",[5]; [13],70
same,"Crabgrass, Large plant response rating",[5]; [17],90
same,"Plant response rating, Crabgrass, Large",[5]; [15],20
same,"Plant response rating, Crabgrass, Large",[5]; [18],60
same,"Plant response rating, Velvetleaf",[6]; [13],100
same,Velvetleaf plant response rating,[6]; [17],100
same,"Plant response rating, Velvetleaf",[6]; [15],20
same,"Plant response rating, Velvetleaf",[6]; [18],70
same,"Plant response rating, Morningglory",[7]; [13],30
same,Morningglory plant response rating,[7]; [17],60
same,"Plant response rating, Morningglory",[7]; [15],0
same,"Plant response rating, Morningglory",[7]; [18],0
same,"Plant response rating, Foxtail, Giant",[8]; [13],20
same,"Foxtail, Giant plant response rating",[8]; [17],60
same,"Plant response rating, Foxtail, Giant",[8]; [15],0
same,"Plant response rating, Foxtail, Giant",[8]; [18],40
same,"Plant response rating, Pigweed",[9]; [13],100
same,Pigweed plant response rating,[9]; [17],100
same,"Plant response rating, Pigweed",[9]; [15],30
same,"Plant response rating, Pigweed",[9]; [18],90
same,"Plant response rating, Barnyardgrass",[10]; [13],90
same,Barnyardgrass plant response rating,[10]; [17],100
same,"Plant response rating, Barnyardgrass",[10]; [15],0
same,"Plant response rating, Barnyardgrass",[10]; [18],40
CCc1cccc(-c2ncc(C(=O)C3=C(O)CCCC3=O)c(=O)n2C2CCCCC2)c1 [Compound 194],"Plant response rating, Flood, Ducksalad",[1],80
same,"Plant response rating, Ducksalad",[1]; [11],50
same,"Plant response rating, Ducksalad",[1]; [12],50
same,Ducksalad plant response rating,[1],40
same,"Plant response rating, Flood, Rice",rice (Oryza sativa),0
same,"Plant response rating, Rice",rice (Oryza sativa); [11],0
same,"Plant response rating, Rice",rice (Oryza sativa); [12],0
same,Rice plant response rating,rice (Oryza sativa),0
same,"Plant response rating, Flood, Barnyardgrass",[2],15
same,"Plant response rating, Barnyardgrass",[2]; [11],0
same,"Plant response rating, Barnyardgrass",[2]; [12],10
same,Barnyardgrass plant response rating,[2],0
same,"Plant response rating, Flood, Sedge, Umbrella",[3],65
same,"Plant response rating, Sedge, Umbrella",[3]; [11],0
same,"Plant response rating, Sedge, Umbrella",[3]; [12],0
same,"Sedge, Umbrella plant response rating",[3],0
same,"Plant response rating, Corn",corn (Zea mays); [13],0
same,Corn plant response rating,corn (Zea mays); [17],10
same,"Plant response rating, Corn",corn (Zea mays); [15],0
same,"Plant response rating, Corn",corn (Zea mays); [18],0
same,"Plant response rating, Wheat",[4]; [13],0
same,Wheat plant response rating,[4]; [17],0
same,"Plant response rating, Wheat",[4]; [15],0
same,"Plant response rating, Wheat",[4]; [18],0
same,"Plant response rating, Crabgrass, Large",[5]; [13],60
same,"Crabgrass, Large plant response rating",[5]; [17],90
same,"Plant response rating, Crabgrass, Large",[5]; [15],20
same,"Plant response rating, Crabgrass, Large",[5]; [18],40
same,"Plant response rating, Velvetleaf",[6]; [13],100
same,Velvetleaf plant response rating,[6]; [17],100
same,"Plant response rating, Velvetleaf",[6]; [15],30
same,"Plant response rating, Velvetleaf",[6]; [18],70
same,"Plant response rating, Morningglory",[7]; [13],90
same,Morningglory plant response rating,[7]; [17],100
same,"Plant response rating, Morningglory",[7]; [18],20
same,"Plant response rating, Foxtail, Giant",[8]; [13],30
same,"Foxtail, Giant plant response rating",[8]; [17],50
same,"Plant response rating, Pigweed",[9]; [13],100
same,Pigweed plant response rating,[9]; [17],100
same,"Plant response rating, Pigweed",[9]; [15],50
same,"Plant response rating, Pigweed",[9]; [18],100
same,"Plant response rating, Barnyardgrass",[10]; [13],90
same,Barnyardgrass plant response rating,[10]; [17],100
same,"Plant response rating, Barnyardgrass",[10]; [15],0
same,"Plant response rating, Barnyardgrass",[10]; [18],40
